Experimental data reported in US5373000A, “7Beta-(thiadiazolyl)-2-iminoacetamido-3cephem compounds” (Eisai Co., Ltd., priority 1985, dated 1994).
≈ marks a conversion by molar mass, not a printed value. Values belong to the compound of their own block, whether it stands above or below them.

Assays:
Assay in all cases: Antibacterial activities, MIC
Format in all cases: cell-based
[1] = test system: Kleb Pneumoniae EK-6; details: read-out: MIC
[2] = test system: Pseud. aeruginosa EP-01; details: Pseudomonas aeruginosa, EP01, Pseud. aeruginosa EP-01; read-out: MIC
[3] = test system: Escher. coli NIHJ; details: Escherichia coli, read-out: MIC
[4] = test system: Morg. morganii EP-14; details: Morganella morganii, EP14, Morg. morganii EP-14; read-out: MIC
[5] = test system: Ser. marcescens ES-75; details: Serratia marcescens, ES75, read-out: MIC
[6] = test system: Staph. aureus 209-P; details: Staphylococcus aureus, read-out: MIC

Structure (SMILES): CO/N=C(\C(=O)N[C@@H]1C(=O)N2C(C(=O)[O-])=C(/C=C/C[N+](C)(C)CCN(C)C)CS[C@H]12)c1nsc(N)n1 [Example 12, 7β-[2-(5-Amino-1,2,4-thiadiazol-3-yl)-(Z)-2-methoxyiminoacetamido]-3-[(E)-3-(2-dimethylaminoethyldimethylammonio)-1-propen-1-yl]-3-cephem-4-carboxylate]
MIC [1]: 0.05 µg/mL (≈ 0.0928 µM) | MIC [2]: 1.56 µg/mL (≈ 2.9 µM) | MIC [3]: 0.05 µg/mL (≈ 0.0928 µM) | MIC [4]: 0.1 µg/mL (≈ 0.186 µM) | MIC [5]: 0.1 µg/mL (≈ 0.186 µM) | MIC [6]: 0.4 µg/mL (≈ 0.743 µM)

Structure (SMILES): CO/N=C(\C(=O)N[C@@H]1C(=O)N2C(C(=O)[O-])=C(/C=C/C[N+](C)(C)Cc3cscn3)CS[C@H]12)c1nsc(N)n1 [Example 23, 7β-[2-(5-Amino-1,2,4-thiadiazol-3-yl)-(Z)-2-methoxyiminoacetamido]-3-[(E)-3[(thiazol-4-yl)methyldimethylammonio]-1-propen-1-yl]-3-cephem-4-carboxylate]
MIC [1]: ≤ 0.025 µg/mL | MIC [2]: 3.13 µg/mL (≈ 5.54 µM) | MIC [3]: ≤ 0.025 µg/mL | MIC [4]: ≤ 0.025 µg/mL | MIC [5]: 0.05 µg/mL (≈ 0.0885 µM) | MIC [6]: 0.2 µg/mL (≈ 0.354 µM)

Structure (SMILES): CO/N=C(\C(=O)N[C@@H]1C(=O)N2C(C(=O)[O-])=C(/C=C/C[N+]3(CCO)CCC(C(N)=O)CC3)CS[C@H]12)c1nsc(N)n1 (stereo partly drawn) [Example 44-1]
MIC [1]: ≤ 0.025 µg/mL | MIC [2]: 0.8 µg/mL (≈ 1.35 µM) | MIC [3]: 0.05 µg/mL (≈ 0.0841 µM) | MIC [4]: 0.05 µg/mL (≈ 0.0841 µM) | MIC [5]: 0.05 µg/mL (≈ 0.0841 µM) | MIC [6]: 0.4 µg/mL (≈ 0.673 µM)

Structure (SMILES): CO/N=C(\C(=O)N[C@@H]1C(=O)N2C(C(=O)[O-])=C(/C=C/C[N+]3(C)CCN(C(N)=O)CC3)CS[C@H]12)c1nsc(N)n1 [Example 29, 7β-[2-(5-Amino-1,2,4-thiadiazol-3-yl)-(Z)-2-methoxyiminoacetamido]-3-[(E)-3-(1-methyl-4-carbamoyl-1-piperazinio)-1-propen-1-yl]-3-cephem-4-carboxylate]
MIC [1]: 0.05 µg/mL (≈ 0.0884 µM) | MIC [2]: 1.56 µg/mL (≈ 2.76 µM) | MIC [3]: 0.05 µg/mL (≈ 0.0884 µM) | MIC [4]: 0.05 µg/mL (≈ 0.0884 µM) | MIC [5]: 0.1 µg/mL (≈ 0.177 µM) | MIC [6]: 0.4 µg/mL (≈ 0.707 µM)

Structure (SMILES): CO/N=C(\C(=O)N[C@@H]1C(=O)N2C(C(=O)[O-])=C(/C=C/C[N+]3(CC(N)=O)CC[C@@H](O)C3)CS[C@H]12)c1nsc(N)n1 (stereo partly drawn) [Example 45-1]
MIC [1]: ≤ 0.025 µg/mL | MIC [2]: 0.8 µg/mL (≈ 1.41 µM) | MIC [3]: ≤ 0.025 µg/mL | MIC [4]: ≤ 0.025 µg/mL | MIC [5]: 0.05 µg/mL (≈ 0.0882 µM) | MIC [6]: 0.4 µg/mL (≈ 0.706 µM)

Structure (SMILES): CO/N=C(\C(=O)N[C@@H]1C(=O)N2C(C(=O)[O-])=C(/C=C/C[N+](C)(C)CC(C)=O)CS[C@H]12)c1nsc(N)n1 [Example 17, 7β-[2-(5-Amino-1,2,4-thiadiazol-3-yl)-(Z)-2-methoxyiminoacetamido]-3-[(E)-3-(2-oxopropyldimethylammonio)-1-propen-1-yl]-3-cephem-4-carboxylate]
MIC [1]: 0.05 µg/mL (≈ 0.0955 µM) | MIC [2]: 1.56 µg/mL (≈ 2.98 µM) | MIC [3]: 0.05 µg/mL (≈ 0.0955 µM) | MIC [4]: 0.1 µg/mL (≈ 0.191 µM) | MIC [5]: 0.1 µg/mL (≈ 0.191 µM) | MIC [6]: 0.4 µg/mL (≈ 0.764 µM)

Structure (SMILES): CO/N=C(\C(=O)N[C@@H]1C(=O)N2C(C(=O)[O-])=C(/C=C/C[N+](C)(C)Cc3csc(N)n3)CS[C@H]12)c1nsc(N)n1 [Example 25]
MIC [1]: 0.03 µg/mL (≈ 0.0518 µM) | MIC [2]: 3.13 µg/mL (≈ 5.4 µM) | MIC [3]: ≤ 0.025 µg/mL | MIC [4]: 0.05 µg/mL (≈ 0.0863 µM) | MIC [5]: 0.03 µg/mL (≈ 0.0518 µM) | MIC [6]: 0.2 µg/mL (≈ 0.345 µM)

MIC [1]: 0.1 µg/mL (≈ 0.182 µM) | MIC [2]: 1.56 µg/mL (≈ 2.84 µM) | MIC [3]: 0.05 µg/mL (≈ 0.091 µM) | MIC [4]: 0.1 µg/mL (≈ 0.182 µM) | MIC [5]: 0.2 µg/mL (≈ 0.364 µM) | MIC [6]: 0.4 µg/mL (≈ 0.728 µM)
Structure (SMILES): CO/N=C(\C(=O)N[C@@H]1C(=O)N2C(C(=O)[O-])=C(/C=C/C[N+]3(C)CCN(C=N)CC3)CS[C@H]12)c1nsc(N)n1 [Example 28, 7β-[2-(5-Amino-1,2,4-thiadiazol-3-yl)-(Z)-2-methoxyiminoacetamido]-3-[(E)-3-(1-methyl-4-formimidoyl-1-piperazinio)-1-propen-1-yl]-3-cephem-4-carboxylate]

Structure (SMILES): CC[N+](CC)(C/C=C/C1=C(C(=O)[O-])N2C(=O)[C@@H](NC(=O)/C(=N\OC)c3nsc(N)n3)[C@H]2SC1)CC(N)=O [Example 11, 7β-[2-(5-Amino-1,2,4-thiadiazol-3-yl)-(Z)-2-methoxyiminoacetamido]-3-[(E)-3-(carbamoylmethyldiethylammonio)-1-propen-1-yl]-3-cephem-4-carboxylate]
MIC [1]: ≤ 0.025 µg/mL | MIC [2]: 1.56 µg/mL (≈ 2.82 µM) | MIC [3]: 0.05 µg/mL (≈ 0.0905 µM) | MIC [4]: 0.05 µg/mL (≈ 0.0905 µM) | MIC [5]: 0.1 µg/mL (≈ 0.181 µM) | MIC [6]: 0.2 µg/mL (≈ 0.362 µM)

Structure (SMILES): CCO/N=C(\C(=O)N[C@@H]1C(=O)N2C(C(=O)[O-])=C(/C=C/C[N+](C)(C)CC(N)=O)CS[C@H]12)c1nsc(N)n1 [Example 15, 7β-[2-(5-Amino-1,2,4-thiadiazol-3-yl)-(Z)-2-ethoxyiminoacetamido]-3-[(E)-3-(carbamoylmethyldimethylammonio)-1-propen-1-yl]-3-cephem-4-carboxylate]
MIC [1]: 0.05 µg/mL (≈ 0.0928 µM) | MIC [2]: 1.56 µg/mL (≈ 2.9 µM) | MIC [3]: 0.1 µg/mL (≈ 0.186 µM) | MIC [4]: 0.05 µg/mL (≈ 0.0928 µM) | MIC [5]: 0.2 µg/mL (≈ 0.371 µM) | MIC [6]: 0.2 µg/mL (≈ 0.371 µM)
